Assay results reported in patent publication US20100055169A1, “CATIONIC LIPIDS AND USES THEREOF” (ABBOTT LABORATORIES, priority 2008, published 2010).

How the values were obtained:
Assay type in all cases: physicochemical
[1] = RiboGreen assay of siRNA encapsulation efficiency, in vitro formulations of Lipid-Based Particles; details: in vitro formulation b: Cationic lipid/PEG-cholesterol/DSPC/Chol 45/10/15/30 wt %, lipid:siRNA 25:1
How it was run: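 siRNA in pH 4.0 citrate buffer (20 mM, 0.2 mg/mL) mixed at 60 °C with an ethanolic lipid blend (cationic lipid, cholesterol, non-cationic lipid, PEG-lipid), then diluted with PBS pH 7.4. Encapsulation efficiency from RiboGreen fluorescence (480/520 nm) with siRNA released by ethanol, Triton X-100 or phenol/chloroform.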

[2] = Particle sizing by dynamic light scattering (DynaPro plate reader), in vitro formulations; details: in vitro formulation b: Cationic lipid/PEG-cholesterol/DSPC/Chol 45/10/15/30 wt %, lipid:siRNA 25:1
Procedure: The siRNA concentrations were measured using Quanti-iT RiboGreen RNA reagent (Molecular Probes, (R11490)). Vesicle sizes were characterized by dynamic light scattering with a DynaPro™ Plate Reader (Wyatt Technology) in 96-well half-area UV plate (Coring) after diluting the formulation sample (20 μL) in phosphate buffered saline (80 μL) at a pH of about 7-8. A 1% agarose gel-based assay was used for analyzing nuclease degradation and protection. Encapsulation efficiency (EE) was calculated using data obtained from a RiboGreen assay.
Particle sizes and size distributions (PDI) were characterized by using dynamic light scattering (DLS). A DLS plate reader (Dynapro™, Wyatt Technology) was used for the DLS measurement. This DLS plate reader uses an 830 nm laser and the scattering angle is 158°. It also can control temperature from 4° C. to 70° C. A 96-well format was employed for the samples.
Samples for DLS analysis were prepared by mixing 20 μL of each sample stock solution with 80 μL PBS directly in the 96-well plate (#3697, Corning). Sample mixing was accomplished using a microplate shaker (Orbis, Mikura Ltd.). Plates were read at 20° C. with an acquisition time of 50 seconds for each sample, and data was analyzed with Wyatt Technology's Dynamics V6 software. To rule out potential multiple scattering artifacts, a second plate at 4-fold reduced sample concentrations was independently prepared by mixing 5 μL stock solutions with 95 μL PBS. Under our experimental conditions the results at the two concentrations were very similar, and the final reported result for each sample represents the average of values obtained from the two plates.

[3] = RiboGreen assay of siRNA encapsulation efficiency, in vivo formulations of Lipid-Based Particles; details: lipid:siRNA 25:1
How it was run: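 RiboGreen fluorescence (480/520 nm) quantifies siRNA before and after release from particles with ethanol, Triton X-100 or phenol/chloroform. Particles formed by ethanol-injection of lipid into pH 4.0 citrate buffer containing siRNA at 65 °C, diluted in PBS pH 7.4, diafiltered (100K) and sterile-filtered.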

- % Encapsulation Efficiency [1]: 97.0%
- Size [2]: 135.4 nm
- % Encapsulation Efficiency ([3]; in vivo formulation A: Cationic lipid/Example 73/DSPC/Chol 45/10/15/30 wt %): 96.6%
- % Encapsulation Efficiency ([3]; in vivo formulation B: Cationic lipid/PEG-cholesterol/DSPC/Chol 45/10/15/30 wt %): 89.3%
- % Encapsulation Efficiency ([3]; in vivo formulation C: Cationic lipid/Pal-PEG-Cera/DSPC/Chol 45/10/15/30 wt %): 97.8%
- % Encapsulation Efficiency ([3]; in vivo formulation D: Cationic lipid/Example 66/DSPC/Chol 45/10/15/30 wt %): 97.0%
- % Encapsulation Efficiency ([3]; in vivo formulation E: Cationic lipid/Example 53/DSPC/Chol 45/10/15/30 wt %): 79.3%
- % Encapsulation Efficiency ([3]; in vivo formulation F: Cationic lipid/Example 54/DSPC/Chol 45/10/15/30 wt %): 96.1%
- % Encapsulation Efficiency ([3]; in vivo formulation G: Cationic lipid/Example 55/DSPC/Chol 45/10/15/30 wt %): 96.7%
- % Encapsulation Efficiency ([3]; in vivo formulation H: Cationic lipid/PEG-DMPE/DSPC/Chol 45/10/15/30 wt %): 97.3%
- % Encapsulation Efficiency ([3]; in vivo formulation I: Cationic lipid/PEG-DPPE/DSPC/Chol 45/10/15/30 wt %): 92%
- % Encapsulation Efficiency ([3]; in vivo formulation J: Cationic lipid/PEG-DSPE/DSPC/Chol 45/10/15/30 wt %): 100%
- % Encapsulation Efficiency ([3]; in vivo formulation K: Cationic lipid/PEG-DMG/DSPC/Chol 45/10/15/30 wt %): 99.5%
- % Encapsulation Efficiency ([3]; in vivo formulation L: Cationic lipid/PEG-DPG/DSPC/Chol 45/10/15/30 wt %): 90%
- % Encapsulation Efficiency ([3]; in vivo formulation M: Cationic lipid/PEG-DSG/DSPC/Chol 45/10/15/30 wt %): 100%
- % Encapsulation Efficiency ([3]; in vivo formulation NN: Cationic lipid/Example 74/DSPC/Chol 45/10/15/30 wt %): 97.3%
- % Encapsulation Efficiency ([3]; in vivo formulation OO: Cationic lipid/Example 75/DSPC/Chol 45/10/15/30 wt %): 99.5%
- % Encapsulation Efficiency ([3]; in vivo formulation P: Cationic lipid/PEG-DSPE/DOPE/Chol 45/10/15/30 wt %): 97%
- % Encapsulation Efficiency ([3]; in vivo formulation PP: Cationic lipid/Example 73/Chol 45/10/45 wt %): 97.4%
- % Encapsulation Efficiency ([3]; in vivo formulation Q: Cationic lipid/PEG-DSPE/DOPC/Chol 45/10/15/30 wt %): 97%
- % Encapsulation Efficiency ([3]; in vivo formulation R: Cationic lipid/PEG-DSPE/SPC/Chol 45/10/15/30 wt %): 97%
SMILES: CCCCC/C=C\C/C=C\CCCCCCCCOCC(CCN1CCCC1)OCCCCCCCC/C=C\C/C=C\CCCCC (stereo not drawn) [Example 24, 1-{3,4-bis[(9Z,12Z)-octadeca-9,12-dienyloxy]butyl}pyrrolidine]
